Common to all, as to experiment: NCI tumour cell line growth inhibition, 48 h
Assay [1] deals with CCRF-CEM leukemia.
The test system of assay [2] is T-47D breast.
In assay [3] the test system is UO-31 renal.
Assay [4] has as its system NCI-H460 lung.
The subject of assay [5] is DU-145 prostate.
The test system of assay [6] is SNB-75 CNS.
Assay [7] has as its system 786-0 renal.
Assay [8] has as its system OVCAR-8 ovarian.
The test system of assay [9] is PC-3 prostate.
Assay [10] deals with EKVX NSCLC.

This passage reports TGI and GI50 results from PubChem BioAssay (NCI).

Each structure is given as a SMILES string. “And” between values parts separate entries of the source, which are not always exact repeats. Equal entries are not always repeated.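 Values below derive from 48-hour exposures of cells grown in 96-well plates, with endpoints linearly interpolated between the two concentrations bracketing the appropriate inhibition level. Here, GI50 denotes the concentration required for 50% inhibition of growth. TGI is the concentration that stops growth completely.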

In the case of `Cc1ccc(C)c(NC(=O)NCc2ccc(Cl)cc2)c1`, the TGI in assay [1] was above 27.6 µM; in [2], above 100 µM; in [3] it was above 100 µM; in assay [4] it was above 100 µM; in [5] it was above 100 µM; in assay [6] it was 6.26 µM. In addition, the TGI was above 90.3 µM in assay [7], above 100 µM in [8], above 100 µM in assay [9] and above 100 µM in assay [10].
`O=C1C2=Nc3ccccc3C(O)N2c2ccccc21` (configuration not stated): the TGI is above 100 µM in assay [1]; above 100 µM in assay [2]; above 100 µM in assay [3]; above 100 µM in assay [4]; above 100 µM in [5]; 90.4 µM in assay [6]. The TGI in assay [7], in [8], in assay [9] and in [10] was above 100 µM in each case.
With `Oc1c(CN2CCCC2)cc(COCc2ccc(Br)cc2)c2cccnc12`, the GI50 is 0.443 µM in assay [1]; 0.501 µM in assay [2]; 0.0569 µM in assay [3]; 0.433 µM in assay [4]; 0.868 µM in assay [5]; 1.33 µM in assay [6]. Besides, the GI50 was 0.484 µM in assay [7], 0.398 µM in assay [8], 1.01 µM in assay [9] and 0.723 µM in [10]. Further, the TGI in assay [1] came to 2.65 µM; in assay [2], 3.08 µM; in assay [3], 0.903 µM; in [4], 2.01 µM; in [5], 11 µM; in [6], 11.7 µM. Besides, the TGI in [7] stood at 2.59 µM; in assay [8] it was 1.94 µM; in assay [9], 5.97 µM; in assay [10] it was 11.8 µM.
In the case of `CC(=O)OCC(=O)O[C@@H]1C[C@]2(C(C)C)O[C@@]1(C)[C@@H]1CC[C@@H](C)[C@H]1[C@@H]2OC(=O)/C=C/c1ccccc1`, the GI50 was 21.3 µM in assay [1]; 8.81 µM in [2]; 0.0336 µM in assay [3]; 21.4 µM in assay [4]; 18.4 µM in assay [5]; 13.2 µM in assay [6]. Also, the GI50 was 0.931 µM in assay [7], 0.0747 µM in [8], 7.88 µM in assay [9] and 13.8 µM in assay [10]. Moreover, the TGI in assay [1] is above 100 µM; in assay [2] it was above 97.2 µM; in assay [3], 0.242 µM; in [4], 60.1 µM; in assay [5], 40.6 µM; in [6], 58.4 µM. The TGI in assay [7] was 18.9 µM; in assay [8], above 56.3 µM; in [9], above 100 µM; in assay [10] it was 59.1 µM.
In the case of `Cc1cnc(/C=N\NC(N)=S)c2cccc(N)c12`, the GI50 was 1.82 µM in assay [1]; 2.49 µM in [2]; 1.88 µM in assay [3]; 2.61 µM in [4]; 1.68 µM in assay [5]; 1.35 µM in [6]. The GI50 in assay [7] is 0.867 µM and 0.501 µM; in assay [8] it was 2.66 µM; in assay [9], above 22.7 µM; in [10], 3.15 µM. Also, the TGI in assay [1] is above 24 µM; in [2], above 100 µM; in [3], 10.3 µM and 4.4 µM; in assay [4] it was above 37.7 µM; in assay [5] it was above 100 µM; in [6], > 27 µM and 9.48 µM. Besides, the TGI in [8] was above 100 µM; in assay [9], above 100 µM; in [10] it was > 100 µM and 53.6 µM.
Consider `CN(C)c1ncnc2c1nnn2C1OC(CO)C(O)C1O` (configuration not stated), for which the GI50 is 0.0662 µM in assay [1]; 0.141 µM in assay [2]; 0.4 µM in assay [3]; 0.247 µM in assay [4]; 0.106 µM in assay [5]; 0.106 µM in assay [6]. The GI50 is 0.226 µM in assay [7], 0.0759 µM in [8], 0.271 µM in [9] and 2.33 µM in assay [10]. In addition, the TGI is above 100 µM in assay [1]; 2.81 µM in [2]; above 100 µM in assay [3]; above 100 µM in assay [4]; above 100 µM in [5]; above 100 µM in assay [6]. The TGI in assay [7] is above 100 µM; in [8], above 100 µM; in [9], above 45.5 µM; in assay [10], above 100 µM.
With `O=C([O][Hg][CH2]C1COC([CH2][Hg][O]C(=O)c2ccccc2)CO1)c1ccccc1` (configuration not stated), the GI50 is 0.958 µM and 1.17 µM in assay [1]; 1.88 µM and 1.7 µM in assay [2]; 17.7 µM in assay [3]; 17.3 µM and 3.49 µM in assay [4]; 18.8 µM in [5]; 17.6 µM and 4.32 µM in [6]. In addition, the GI50 in assay [7] is 2.88 µM and 1.47 µM; in assay [8] it was 10.7 µM and 1.92 µM; in [9], 15.3 µM; in assay [10], 20.7 µM and 19.5 µM. The TGI in assay [1] was 3.64 µM; in assay [2] it was 4.06 µM and 4.17 µM; in assay [3], 31.5 µM; in [4], 33.4 µM and 21.6 µM; in assay [5], 33 µM; in [6] it was 31.9 µM and 23.4 µM. Also, the TGI in assay [7] is 8.5 µM and 2.99 µM; in assay [8] it was 25.4 µM and 4.42 µM; in [10], 35.8 µM and 34.9 µM.
For `COC1CCC(O)C(/C=C/[N+](=O)[O-])C1` (configuration not stated), the TGI was above 100 µM in assay [1]; 44.8 µM in [2]; 7.73 µM in assay [4]; 15.2 µM in assay [5]; 21.5 µM in assay [6]; 3.67 µM in [7]. Also, the figures for the TGI in assay [8], in assay [9] and in assay [10] were 4.69 µM, 6.01 µM and 15.1 µM, respectively.
With `O=c1cc(N2CCNCC2)oc2c(-c3ccccc3)cccc12`, the GI50 is 25.5 µM in assay [1]; 26.6 µM in assay [2]; 24 µM in assay [3]; 48.7 µM in assay [4]; 59 µM in [5]; 15.3 µM in assay [6]. Besides, the GI50 is 33.7 µM in assay [7], 74.2 µM in [8], 32 µM in [9] and 19.8 µM in [10]. Moreover, the TGI in assay [1] is 69.5 µM; in [2], above 100 µM; in [3] it was above 100 µM; in assay [4], above 100 µM; in assay [5], above 100 µM; in [6], 75 µM. The TGI in [7], in assay [8], in assay [9] and in assay [10] was above 100 µM throughout.
